Several values for one entry are separate records, joined by “and”; a condition that tells them apart may be missing. Identical values can stand only once. Toxic doses and inconclusive results are not listed. Rule as the data show it: active = T/C of 150% or more; inactive = T/C below 125%.
Tested on: L1210 leukemia ip in BDF1 mice, survival T/C
Assay: NCI In Vivo Anticancer Drug Screen. Data for tumor model L1210 Leukemia (intraperitoneal) in B6D2F1 (BDF1) mice
Settings: endpoint: mean survival time, higher = longer survival
Method in brief: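 Survival endpoint. Drug-treated group vs vehicle group, expressed as T divided by C. Tumor passaged by transplantation.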

Measured: T/C

CC(C)(C)OC(=O)C(=[N+]=[N-])C(=O)OC(C)(C)C
inactive: dose: 100.0 mg/kg/injection, schedule: Q01DX001 (ip), vehicle: Klucel (hydroxypropylcellulose) (HPC) 97 % of control | dose: 100.0 mg/kg/injection, schedule: Q01DX009 (ip), vehicle: Klucel (hydroxypropylcellulose) (HPC) 102 % of control | dose: 100.0 mg/kg/injection, schedule: Q04DX003 (ip), vehicle: Klucel (hydroxypropylcellulose) (HPC) 98 % of control | dose: 200.0 mg/kg/injection, schedule: Q01DX001 (ip), vehicle: Klucel (hydroxypropylcellulose) (HPC) 97 % of control | dose: 200.0 mg/kg/injection, schedule: Q01DX009 (ip), vehicle: Klucel (hydroxypropylcellulose) (HPC) 105 % of control | dose: 200.0 mg/kg/injection, schedule: Q04DX003 (ip), vehicle: Klucel (hydroxypropylcellulose) (HPC) 104 % of control | dose: 400.0 mg/kg/injection, schedule: Q01DX001 (ip), vehicle: Klucel (hydroxypropylcellulose) (HPC) 90 % of control | dose: 400.0 mg/kg/injection, schedule: Q01DX009 (ip), vehicle: Klucel (hydroxypropylcellulose) (HPC) 105 % of control | dose: 400.0 mg/kg/injection, schedule: Q04DX003 (ip), vehicle: Klucel (hydroxypropylcellulose) (HPC) 104 % of control

CCOC(=O)/C(C)=N\N=C(/CCOC)COC
inactive: dose: 50.0 mg/kg/injection, schedule: Q01DX001 (ip), vehicle: saline 101 % of control | dose: 50.0 mg/kg/injection, schedule: Q01DX009 (ip), vehicle: carboxymethylcellulose (CMC) 117 % of control | dose: 100.0 mg/kg/injection, schedule: Q01DX001 (ip), vehicle: saline 101 % of control | dose: 200.0 mg/kg/injection, schedule: Q01DX001 (ip), vehicle: saline 101 % of control | dose: 400.0 mg/kg/injection, schedule: Q01DX001 (ip), vehicle: saline 95 % of control | dose: 400.0 mg/kg/injection, schedule: Q01DX009 (ip), vehicle: carboxymethylcellulose (CMC) 94 % of control

CS(=O)(=O)Oc1c(Br)cc(Br)c2cccnc12
inactive: dose: 100.0 mg/kg/injection, schedule: Q01DX001 (ip), vehicle: carboxymethylcellulose (CMC) 104 % of control | dose: 200.0 mg/kg/injection, schedule: Q01DX001 (ip), vehicle: carboxymethylcellulose (CMC) 98 % of control | dose: 400.0 mg/kg/injection, schedule: Q01DX001 (ip), vehicle: carboxymethylcellulose (CMC) 98 % of control

Cc1ccc(S(=O)(=O)F)cc1C(=O)Nc1ccc(OCCCc2c(N)nc(N)nc2N)cc1
inactive: dose: 37.5 mg/kg/injection, schedule: Q01DX001 (ip), vehicle: Klucel (hydroxypropylcellulose) (HPC) 96 % of control | dose: 75.0 mg/kg/injection, schedule: Q01DX001 (ip), vehicle: Klucel (hydroxypropylcellulose) (HPC) 94 % of control | dose: 150.0 mg/kg/injection, schedule: Q01DX001 (ip), vehicle: Klucel (hydroxypropylcellulose) (HPC) 98 % of control

Cc1ccccc1N1CCN(CCC(=O)c2cc3ccccc3o2)CC1
inactive: dose: 5.0 mg/kg/injection, schedule: Q01DX009 (ip), vehicle: saline with Tween-80 104 % of control | dose: 9.5 mg/kg/injection, schedule: Q04DX003 (ip), vehicle: saline with Tween-80 96 % of control | dose: 10.0 mg/kg/injection, schedule: Q01DX009 (ip), vehicle: saline with Tween-80 100 % of control | dose: 18.0 mg/kg/injection, schedule: Q01DX001 (ip), vehicle: saline with Tween-80 94 % of control | dose: 19.0 mg/kg/injection, schedule: Q04DX003 (ip), vehicle: saline with Tween-80 116 % of control | dose: 20.0 mg/kg/injection, schedule: Q01DX009 (ip), vehicle: saline with Tween-80 106 % of control | dose: 37.5 mg/kg/injection, schedule: Q01DX001 (ip), vehicle: saline with Tween-80 101 % of control

CCCCCC[n+]1cccc(C#N)c1
inactive: dose: 18.75 mg/kg/injection, schedule: Q01DX009 (ip), vehicle: saline 95 % of control | dose: 37.5 mg/kg/injection, schedule: Q01DX009 (ip), vehicle: saline 95 % of control | dose: 75.0 mg/kg/injection, schedule: Q01DX001 (ip), vehicle: saline 113 % of control | dose: 75.0 mg/kg/injection, schedule: Q01DX009 (ip), vehicle: saline 94 % of control | dose: 75.0 mg/kg/injection, schedule: Q04DX003 (ip), vehicle: saline 97 % of control | dose: 150.0 mg/kg/injection, schedule: Q01DX001 (ip), vehicle: saline 95 % of control | dose: 150.0 mg/kg/injection, schedule: Q04DX003 (ip), vehicle: saline 101 % of control | dose: 300.0 mg/kg/injection, schedule: Q01DX001 (ip), vehicle: saline 100 % of control

CC1=CCCC(C)C12CCC(C(C)(C)O)C2 (stereo not drawn)
inactive: dose: 50.0 mg/kg/injection, schedule: Q01DX009 (ip), vehicle: other 104 % of control | dose: 100.0 mg/kg/injection, schedule: Q01DX009 (ip), vehicle: other 98 % of control | dose: 100.0 mg/kg/injection, schedule: Q04DX003 (ip), vehicle: saline sonified 103 % of control | dose: 200.0 mg/kg/injection, schedule: Q01DX009 (ip), vehicle: other 100 % of control | dose: 200.0 mg/kg/injection, schedule: Q04DX003 (ip), vehicle: saline sonified 107 % of control

COc1ccc(/C=C(\C#N)c2ccc([N+](=O)[O-])cc2)cc1[N+](=O)[O-]
inactive: dose: 100.0 mg/kg/injection, schedule: Q04DX002 (ip), vehicle: Klucel (hydroxypropylcellulose) (HPC) 105 % of control | dose: 200.0 mg/kg/injection, schedule: Q04DX002 (ip), vehicle: Klucel (hydroxypropylcellulose) (HPC) 105 % of control | dose: 400.0 mg/kg/injection, schedule: Q04DX002 (ip), vehicle: Klucel (hydroxypropylcellulose) (HPC) 102 % of control

CCCC/C=C(\C)CCCCCCCCC (tested in a mixture with another compound)
inactive: dose: 100.0 mg/kg/injection, schedule: Q04DX003 (ip), vehicle: saline with Tween-80 90 % of control | dose: 200.0 mg/kg/injection, schedule: Q04DX003 (ip), vehicle: saline with Tween-80 89 % of control | dose: 400.0 mg/kg/injection, schedule: Q04DX003 (ip), vehicle: saline with Tween-80 98 % of control

N#CC1C2CCC(C2)C1CCCN (stereo not drawn)
inactive: dose: 25.0 mg/kg/injection, schedule: Q01DX009 (ip), vehicle: saline 108 % of control | dose: 25.0 mg/kg/injection, schedule: Q04DX003 (ip), vehicle: saline 102 % of control | dose: 50.0 mg/kg/injection, schedule: Q01DX009 (ip), vehicle: saline 106 % of control | dose: 50.0 mg/kg/injection, schedule: Q04DX003 (ip), vehicle: saline 95 % of control | dose: 100.0 mg/kg/injection, schedule: Q01DX009 (ip), vehicle: saline 98 % of control | dose: 100.0 mg/kg/injection, schedule: Q04DX003 (ip), vehicle: saline 95 % of control and 115 % of control

— PubChem BioAssay AID248 (DTP/NCI, 2004)
